Measurements taken from patent publication US20250297323A1, “METHODS OF USING LONG NON-CODING RNA-8 (TROLL-8) AS A TARGET FOR CANCER DETECTION AND TREATMENT” (H. LEE MOFFITT CANCER CENTER AND RESEARCH INSTITUTE, INC., priority 2022, published 2025).

T1: carnitine palmitoyltransferase 1A (CPT1A) (human, UniProt P50416 2-773)
T1 construct: Endogenous protein immunoprecipitated from cell lysate with anti-CPT1A antibody (15184-1-AP, Proteintech); also called FAO rate-limiting enzyme
T1 sequence (looked up): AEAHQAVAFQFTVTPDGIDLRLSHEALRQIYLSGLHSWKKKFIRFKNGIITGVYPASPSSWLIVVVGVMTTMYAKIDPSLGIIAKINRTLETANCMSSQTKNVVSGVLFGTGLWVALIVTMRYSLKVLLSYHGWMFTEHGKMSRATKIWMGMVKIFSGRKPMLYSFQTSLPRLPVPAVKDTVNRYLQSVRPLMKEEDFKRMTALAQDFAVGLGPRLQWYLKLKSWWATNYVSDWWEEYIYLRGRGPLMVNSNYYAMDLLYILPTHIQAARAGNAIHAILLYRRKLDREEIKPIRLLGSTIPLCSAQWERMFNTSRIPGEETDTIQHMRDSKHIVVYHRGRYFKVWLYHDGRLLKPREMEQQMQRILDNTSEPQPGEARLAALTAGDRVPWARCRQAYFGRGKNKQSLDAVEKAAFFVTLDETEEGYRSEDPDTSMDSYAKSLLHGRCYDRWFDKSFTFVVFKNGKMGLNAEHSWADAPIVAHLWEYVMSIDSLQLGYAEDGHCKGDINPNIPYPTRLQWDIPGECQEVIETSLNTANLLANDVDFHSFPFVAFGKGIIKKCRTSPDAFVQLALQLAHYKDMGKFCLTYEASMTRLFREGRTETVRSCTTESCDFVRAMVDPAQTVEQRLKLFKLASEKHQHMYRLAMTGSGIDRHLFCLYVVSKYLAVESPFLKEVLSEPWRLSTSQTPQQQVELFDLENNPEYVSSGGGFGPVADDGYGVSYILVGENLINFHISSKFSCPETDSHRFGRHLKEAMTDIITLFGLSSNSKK

B1: ACAT1, the acetyl-CoA acetyltransferase 1 protein (enzyme, human, UniProt P24752 34-427, looked up)
chain: VSKPTLKEVVIVSATRTPIGSFLGSLSLLPATKLGSIAIQGAIEKAGIPKEEVKEAYMGNVLQGGEGQAPTRQAVLGAGLPISTPCTTINKVCASGMKAIMMASQSLMCGHQDVMVAGGMESMSNVPYVMNRGSTPYGGVKLEDLIVKDGLTDVYNKIHMGSCAENTAKKLNIARNEQDAYAINSYTRSKAAWEAGKFGNEVIPVTVTVKGQPDVVVKEDEEYKRVDFSKVPKLKTVFQKENGTVTAANASTLNDGAAALVLMTADAAKRLNVTPLARIVAFADAAVEPIDFPIAPVYAASMVLKDVGLKKEDIAMWEVNEAFSLVVLANIKMLEIDPQKVNINGGAVSLGHPIGMSGARIVGHLTHALKQGEYGLASICNGGGGASAMLIQKL
notes: Endogenous protein co-immunoprecipitated with CPT1A from cell lysate; also called acetyltransferase ACAT1

Legend:
CPT1A = experiment: LC-MS of carnitine and fatty acyl-carnitine to reflect CPT1A activity; format: cell-based, human
Procedure: 1.5×10^6 CA1D cells were transfected with either siNT (negative control) or siTROLL-8. 48 h after the transfection, the cells were collected and washed 2-3 times with ice-cold PBS. To analyze global metabolite abundances regulated by TROLL-8, an aliquot of the internal standard mixture was added into siNT and siTROLL-8 cell samples for untargeted metabolomics analysis. The internal standards were obtained from Cambridge Isotope Labs and include the following labelled compounds: Glucose (2,3,4,5,6-^13C5), D-Glucose-6-phosphate (U-^13C6), D-Fructose-1,6-bisphosphate (U-^13C6), L-Serine (^13C3), Glycine (1,2-^13C2), L-Cysteine (3,3-D2), Phosphoenol Pyruvate (2,3-^13C2), Lactate (3,3,3-D3), Pyruvate (D3), Acetyl-1,2-^13C2 CoA, Citric Acid (2,2,4,4-D4), Alpha-Ketoglutaric Acid (1,2,3,4-^13C4), Succinic Acid (D4), Fumaric Acid (D4), DL-Malic Acid (2,3,3-D3), D-Fructose-6-phosphate (U-^13C6). 1 ml of precooled 80% methanol extraction solvent (kept in the −80° C. freezer at least 1 h prior to extraction) was added to the sample for protein precipitation. After addition of the extraction solvent, the samples were vortexed and centrifuged at 18,800×g (Microfuge 22R, Beckman Coulter) at 0° C. for 10 min. Then, the samples were incubated for 30 min in a −80° C. freezer to increase metabolite extraction. After incubation, the samples were immediately centrifuged at 18,800×g at 4° C. for 10 min. Then the supernatant was transferred to a new microcentrifuge tube for drying in SpeedVac vacuum concentrator (Thermo Fisher Scientific). The protein pellet was resolubilized using aqueous 20 mM HEPES with 8M urea for Bradford Assay to measure the protein concentration. Dried metabolites were re-dissolved in 20 μl aqueous 80% methanol. Ultra-high performance liquid chromatography-high resolution mass spectrometry (UHPLC-HRMS) was performed using a Vanquish UHPLC interfaced with a Q Exactive HF quadrupole-orbital ion trap mass spectrometer (Thermo, San Jose, CA). Chromatographic separation was performed using a SeQuant ZIC-pHILIC guard column (2.1 mm ID×20 mm length, 5 μm particle size) and a SeQuant ZIC-pHILIC LC column (2.1 mm ID×150 mm length, 5 μm particle size, MilliporeSigma, Burlington, MA). Mobile phase A was aqueous 10 mM ammonium carbonate and 0.05% ammonium hydroxide, and mobile phase B was 100% acetonitrile. The gradient program included the following steps: start at 80% B, a linear gradient from 80 to 20% B over 13 min, stay at 20% B for 2 min, return to 80% B in 0.1 min, and re-equilibration for 4.9 min for a total run time of 20 min. The flow rate was set to 0.250 ml/min. The autosampler was cooled to 5° C. and the column temperature was set to 30° C. Sample injection volume was 2 μl for both positive ion mode and negative ion mode electrospray ionization. Full MS was performed in positive and negative mode separately detecting ions from m/z 65 to m/z 900. MZmine software, version 3.39, was used to identify and quantify metabolites by matching by m/z and RT to an in-house library. Data normalization was carried out using the protein concentration. For acetyl-CoA detection, spike heavily labelled internal standards (3 labelled Acyl CoAs) into each sample. For fatty acyl-carnitine detection, spike heavily labelled internal standards (3 labelled Acyl Carnitine) into each sample. An aliquot (300 μl) of cold 80% methanol extraction solvent (leave in −80° C. at least one hour prior to the experiments) is added to the sample for protein precipitation. After vortexing, the samples are then incubated in the −80° C. freezer for 30 mins, followed by centrifugation at 18,800×g (Microfuge 22R, Beckman Coulter) at 0° C. for 10 mins. Then the supernatant is transferred to new Eppendorf tubes for drying in SpeedVac vacuum concentrator (Thermo Fisher Scientific). The protein pellet is left behind and proceeds for protein concentration measurement by Bradford Assay. […]

CA1D cells = experiment: Seahorse XF Cell Mito Stress Test (oxygen consumption rate); format: cell-based, human; conditions: siTROLL-8 vs siNT CA1D cells; OCR normalized to groups without inhibitor; Etomoxir 4.0 μM, UK5099 2.0 μM, BPTES 3.0 μM
Procedure: The oxygen consumption rate (OCR) of cells was measured on the Seahorse XF96 extracellular flux analyzer (Agilent Technologies) using a Seahorse XF Cell Mito Stress Test kit in accordance with the manufacturer's instructions. Briefly, siNT or siTROLL-8 CA1D cells (3.0×10^4 cells/well) were seeded in 6 wells (technical replicates) of a 96 well Agilent Seahorse XF Cell Culture Microplate in full growth medium and attached overnight. Hydrate a sensor cartridge in Seahorse XF Calibrant in a non-CO2 incubator at 37° C. overnight. On the day of assay, cells were carefully washed and the growth medium was replaced with prewarmed Seahorse XF base medium (Agilent Technologies) supplemented with 5 mM HEPES, 10 mM glucose, 1 mM sodium pyruvate, and 2 mM L-Glutamine, pH 7.4). The plates of cells in assay medium were incubated in a non-CO2 incubator at 37° C. for 1 h. Prepare compound stock solutions for loading sensor cartridge ports and load the XF96 sensor cartridge to Seahorse XF96 analyzer. Take three basal measurements and determine oxygen and proton concentration in the medium. […]

[1] = target: T1, carnitine palmitoyltransferase 1A …; experiment: co-IP with anti-CPT1A antibody from CA1D cell lysate, western blot
Excerpt: Beyond its classical activity, ACAT1 acetylates the Pyruvate Dehydrogenase Phosphatase Catalytic Subunit1 (PDP1) and the Pyruvate Dehydrogenase E1 Subunit Alpha1 (PDHA1) in the Pyruvate Dehydrogenase Complex (PDC), which negatively regulates the activity of Pyruvate Dehydrogenase (PDH) in glycolysis and tumor growth. […] In the experiment, we have the following groups: whole cell lysate (5% of the total input); cell lysate from either CA1D cells, or siNT/siTROLL-8 treated CA1D cells immunoprecipitated with CPT1A specific antibody; or the same cell lysate immunoprecipitated with normal IgG control antibody. […] While there is no change in the expression level of either CPT1A or ACAT1 in the whole cell lysate, CPT1A specifically immunoprecipitated more ACAT1 (by around 2-fold) in siTROLL-8 CA1D cells compared to non-treated cells, confirming the LC-MS discovery that TROLL-8 depletion increased the physical interaction between CPT1A and ACAT1.
4 mg cell lysate of CA1D cells were prepared using RIPA buffer and used to test the interaction between CPT1A and ACAT1. 4 mg cell lysate of either CA1D cells transfected with siRNAs for TROLL-8, or with the non-targeting siRNA as a negative control, were used to test the change in the interaction between CPT1A and ACAT1. The CoIP assay was performed according to the protocol provided with the anti-CPT1A primary antibody (15184-1-AP). […]

[2] = target: T1, carnitine palmitoyltransferase 1A …; experiment: co-IP with anti-CPT1A antibody from CA1D cell lysate, LC-MS/MS proteomics
Procedure: 4 mg cell lysate of CA1D cells were prepared using RIPA buffer and used to test the interaction between CPT1A and ACAT1. 4 mg cell lysate of either CA1D cells transfected with siRNAs for TROLL-8, or with the non-targeting siRNA as a negative control, were used to test the change in the interaction between CPT1A and ACAT1. The CoIP assay was performed according to the protocol provided with the anti-CPT1A primary antibody (15184-1-AP). Add anti-CPT1A primary antibody (15184-1-AP, Proteintech) or negative control normal rabbit IgG (#2729, Cell Signaling) corresponding to the primary antibody source to the lysate with gentle rocking at 4° C. for 12 h. 50 ul Protein G Dynabeads slurry were added to capture the immunocomplex with gentle rocking at 4° C. for 12 h. Collect the beads with magnetic stand and discard the supernatant. Wash the beads 3 times with 1 ml 0.2% TBST, collect the beads with magnetic stand and discard the supernatant. […] The interaction was then detected via western blot using the following primary antibodies: CPT1A (ab128568, Abcam), ACAT1 (ab168342, Abcam), and beta-actin (A5441, Sigma-Aldrich).
1.5×10⁶ CA1D cells were transfected with either siNT (negative control) or siTROLL-8. […] The SDS-PAGE gel bands or the immunoprecipitated proteins were extracted, digested with trypsin, and analyzed via LC-MS/MS and the identified peptides are listed in Supplementary Data 1. […]

[3] = CA1D cells with shCPT1A and CPT1A WT/KQ/KR overexpression, mutants compared to CPT1A overexpression

Molecule | fatty acylcarnitine level (CPT1A; [3]) | free carnitine level (CPT1A; [3]) | long-chain fatty acylcarnitine levels (CPT1A; CA1D cells, 10 μM Etomoxir) | medium-chain fatty acylcarnitine levels (CPT1A; CA1D cells, 10 μM Etomoxir) | short-chain fatty acylcarnitine levels (CPT1A; CA1D cells, 10 μM Etomoxir) | level of carnitine (substrate for CPT1A activity) (CPT1A; CA1D cells, siNT, siTROLL-8, siNT+Eto, 10 μM Etomoxir) | impact of fuel oxidation inhibitor in basal respiration upon TROLL-8 depletion (CA1D cells) | fold change of ACAT1 immunoprecipitated by CPT1A (siTROLL-8 vs non-treated CA1D cells) [1] [fold] | fold change of co-immunoprecipitation with CPT1A (TROLL-8 depleted vs non-treated CA1D cells) [2] [fold]
CCOC(=O)[C@@]1(CCCCCCOc2ccc(Cl)cc2)CO1 [Etomoxir] | reduced | augmented | significantly reduced | significantly reduced | significantly reduced | increased | increased the impact | – | –
N#C/C(=C\c1cn(-c2ccccc2)c2ccccc12)C(=O)O [UK5099] | – | – | – | – | – | – | increased the impact | – | –
B1 | – | – | – | – | – | – | – | ~2 | ~2
